Columns and labels:
Candida dubliniensis = experiment: checkerboard drug interaction (FICI, MICc); assay type: cell-based;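 also: simplified diagonal checkerboard screen pairing antifungals with FPPS inhibitors, FICI calculated under the Loewe additivity model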
Experimental: (§1) Drug interactions between antifungals and FPPS inhibitors were investigated using a simplified checkerboard diagonal screening method ([45]). […] FICIs were determined according to the Loewe additivity model ([17]).

Rhizopus oryzae [1] = experiment: MIC broth microdilution (CLSI); assay type: cell-based; details: Rhizopus oryzae 04-14-364-1703
Experimental: (§2) Antifungal susceptibility was determined by broth microdilution according to the CLSI guidelines described in M27-Ed4 ([16]).

Aspergillus niger [2] = experiment: MIC broth microdilution (CLSI); assay type: cell-based; details: Aspergillus niger 111
Experimental: as §2

[3] = test system: Aspergillus frankstonensis; experiment: checkerboard drug interaction (FICI, MICc);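 also: simplified diagonal checkerboard screen pairing antifungals with FPPS inhibitors, FICI calculated using the Loewe additivity model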
Experimental: as §1

Aspergillus niger [4] = experiment: checkerboard drug interaction (FICI, MICc); assay type: cell-based;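 also: simplified diagonal checkerboard screen pairing antifungals with FPPS inhibitors, FICI calculated under the Loewe additivity model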
Experimental: as §1

Candida auris [5] = experiment: checkerboard drug interaction (FICI, MICc); assay type: cell-based;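 also: simplified diagonal checkerboard screen pairing antifungals with FPPS inhibitors, with FICI computed under the Loewe additivity model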
Experimental: as §1

Paraphyton cookei = experiment: MIC broth microdilution (CLSI); assay type: cell-based; details: Paraphyton cookei R-639
Experimental: as §2

[6] = test system: Trichophyton interdigitale; experiment: checkerboard drug interaction (FICI, MICc);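 also: simplified diagonal checkerboard screen pairing antifungals with FPPS inhibitors, FICI values calculated under the Loewe additivity model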
Experimental: as §1

Aspergillus lentulus = experiment: MIC broth microdilution (CLSI); assay type: cell-based; details: Aspergillus lentulus DTO 341-G7
Experimental: as §2

Rhizopus oryzae [7] = experiment: checkerboard drug interaction (FICI, MICc); assay type: cell-based;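 also: simplified diagonal checkerboard screen pairing antifungals with FPPS inhibitors, FICI calculated under the Loewe additivity model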
Experimental: as §1

Pichia kudriavzevii = experiment: MIC broth microdilution (CLSI); assay type: cell-based; details: Pichia kudriavzavii ATCC 6258
Experimental: Antifungal susceptibility was determined by broth microdilution according to the CLSI guidelines described in M27-Ed4 ([16]). […] MFC was determined by back-plating drug-treated cultures from MIC broths onto SDA plates. The MFC was defined as the lowest concentration from which no colonies could be cultured.

Cryptococcus tetragattii = experiment: checkerboard drug interaction (FICI, MICc); assay type: cell-based;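 also: simplified diagonal checkerboard screen pairing antifungals with FPPS inhibitors, with FICI calculated under the Loewe additivity model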
Experimental: as §1

Aspergillus parafelis = experiment: checkerboard drug interaction (FICI, MICc);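 also: simplified diagonal checkerboard screen pairing antifungals with FPPS inhibitors, FICI calculated under the Loewe additivity model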
Experimental: as §1

Trichophyton soudanense = experiment: MIC broth microdilution (CLSI); details: Trichophyton soudanense R-167
Experimental: as §2

[8] = test system: Cryptococcus bacillisporus; experiment: MIC broth microdilution (CLSI); assay type: cell-based; details: Cryptococcus bacillisporus NIH179
Experimental: as §2

[9] = test system: Trichophyton interdigitale; experiment: MIC broth microdilution (CLSI); assay type: cell-based; details: Trichophyton interdigitale R-234
Experimental: as §2

Mucor circinelloides = experiment: MIC broth microdilution (CLSI); assay type: cell-based; details: Mucor circinelloides 80-14-240-5007
Experimental: as §2

Candida auris [10] = experiment: MIC broth microdilution (CLSI); assay type: cell-based; details: Candida auris CDC-0384
Experimental: as §2

[11] = test system: Cryptococcus deneoformans; experiment: MIC broth microdilution (CLSI); assay type: cell-based; details: Cryptococcus deneoformans JEC21
Experimental: as §2

Trichophyton tonsurans = experiment: MIC broth microdilution (CLSI); details: Trichophyton tonsurans R-168
Experimental: as §2

Aspergillus felis = experiment: checkerboard drug interaction (FICI, MICc); assay type: cell-based
Experimental: as §1

CCCCCCCCCCn1cc[n+](CC(O)(P(=O)(O)O)P(=O)(O)O)c1 [10-ZOL, Decyl-zoledronate]
1.18: FICI (Candida dubliniensis; CAS:10-ZOL)
1.48: FICI (Cryptococcus tetragattii; VOR:10-ZOL)
0.25: bisphosphonate MICc (Candida dubliniensis; with 5FC) | bisphosphonate MICc (Candida dubliniensis; with FLC) | bisphosphonate MICc (Candida auris [5]; with AMB) | bisphosphonate MICc ([6]; with AMB) | bisphosphonate MICc (Rhizopus oryzae [7]; with AMB) | bisphosphonate MICc (Aspergillus felis; with KET)
0.5 µg/mL: MIC / MEC (Paraphyton cookei)
≥4: FICI ([3]; VOR:10-ZOL) | FICI (Aspergillus niger [4]; 5FC:10-ZOL) | FICI (Rhizopus oryzae [7]; 5FC:10-ZOL) | FICI (Rhizopus oryzae [7]; CAS:10-ZOL) | FICI (Aspergillus parafelis; 5FC:10-ZOL) | FICI (Aspergillus parafelis; CAS:10-ZOL) | FICI (Aspergillus felis; CAS:10-ZOL)
0.125: bisphosphonate MICc (Candida dubliniensis; with AMB) | bisphosphonate MICc (Candida dubliniensis; with CAS) | bisphosphonate MICc (Candida dubliniensis; with ITR) | bisphosphonate MICc (Candida dubliniensis; with KET) | bisphosphonate MICc ([3]; with CAS) | bisphosphonate MICc (Candida auris [5]; with ITR) | bisphosphonate MICc ([6]; with ITR) | bisphosphonate MICc (Cryptococcus tetragattii; with FLC) | bisphosphonate MICc (Cryptococcus tetragattii; with ITR) | bisphosphonate MICc (Cryptococcus tetragattii; with KET)
1.09: FICI ([3]; CAS:10-ZOL)
0.063: bisphosphonate MICc (Cryptococcus tetragattii; with AMB)
2.17: FICI (Aspergillus niger [4]; AMB:10-ZOL)
2 µg/mL: MIC / MEC (Aspergillus lentulus) | MIC / MEC (Trichophyton soudanense) | MIC / MEC [8] | MIC / MEC (Candida auris [10])
4: bisphosphonate MICc (Aspergillus parafelis; with ITR) | bisphosphonate MICc (Aspergillus felis; with CAS)
4 µg/mL: MIC / MEC (Rhizopus oryzae [1]) | MIC / MEC (Aspergillus niger [2]) | MIC / MEC (Pichia kudriavzevii)
1: bisphosphonate MICc (Candida dubliniensis; with VOR) | FICI ([3]; ITR:10-ZOL) | bisphosphonate MICc ([3]; with 5FC) | FICI (Aspergillus niger [4]; CAS:10-ZOL) | bisphosphonate MICc (Aspergillus niger [4]; with 5FC) | bisphosphonate MICc (Aspergillus niger [4]; with AMB) | bisphosphonate MICc (Aspergillus niger [4]; with ITR) | bisphosphonate MICc (Candida auris [5]; with 5FC) | bisphosphonate MICc (Candida auris [5]; with KET) | bisphosphonate MICc (Candida auris [5]; with VOR) | bisphosphonate MICc ([6]; with 5FC) | bisphosphonate MICc ([6]; with CAS) | bisphosphonate MICc ([6]; with FLC) | FICI (Rhizopus oryzae [7]; VOR:10-ZOL) | bisphosphonate MICc (Cryptococcus tetragattii; with CAS) | bisphosphonate MICc (Aspergillus parafelis; with CAS) | bisphosphonate MICc (Aspergillus parafelis; with KET) | FICI (Aspergillus felis; AMB:10-ZOL) | bisphosphonate MICc (Aspergillus felis; with 5FC) | bisphosphonate MICc (Aspergillus felis; with AMB) | bisphosphonate MICc (Aspergillus felis; with FLC) | bisphosphonate MICc (Aspergillus felis; with ITR)
0.5: bisphosphonate MICc ([3]; with FLC) | bisphosphonate MICc ([3]; with ITR) | bisphosphonate MICc ([3]; with KET) | bisphosphonate MICc (Aspergillus niger [4]; with FLC) | bisphosphonate MICc (Aspergillus niger [4]; with VOR) | FICI (Candida auris [5]; FLC:10-ZOL) | bisphosphonate MICc (Candida auris [5]; with CAS) | bisphosphonate MICc (Candida auris [5]; with FLC) | bisphosphonate MICc ([6]; with KET) | bisphosphonate MICc ([6]; with VOR) | bisphosphonate MICc (Rhizopus oryzae [7]; with CAS) | FICI (Cryptococcus tetragattii; KET:10-ZOL) | bisphosphonate MICc (Cryptococcus tetragattii; with 5FC) | bisphosphonate MICc (Cryptococcus tetragattii; with VOR)
0.43: FICI (Candida dubliniensis; KET:10-ZOL)
1.5: FICI (Candida auris [5]; 5FC:10-ZOL) | FICI ([6]; 5FC:10-ZOL)
3: FICI ([3]; 5FC:10-ZOL) | FICI ([6]; CAS:10-ZOL)
2: bisphosphonate MICc ([3]; with AMB) | bisphosphonate MICc ([3]; with VOR) | bisphosphonate MICc (Aspergillus niger [4]; with CAS) | bisphosphonate MICc (Aspergillus niger [4]; with KET) | bisphosphonate MICc (Rhizopus oryzae [7]; with 5FC) | bisphosphonate MICc (Rhizopus oryzae [7]; with FLC) | bisphosphonate MICc (Rhizopus oryzae [7]; with ITR) | bisphosphonate MICc (Rhizopus oryzae [7]; with KET) | bisphosphonate MICc (Rhizopus oryzae [7]; with VOR) | bisphosphonate MICc (Aspergillus parafelis; with 5FC) | bisphosphonate MICc (Aspergillus parafelis; with AMB) | bisphosphonate MICc (Aspergillus parafelis; with FLC) | bisphosphonate MICc (Aspergillus parafelis; with VOR)
1 µg/mL: MIC / MEC [9] | MIC / MEC (Mucor circinelloides) | MIC / MEC [11] | MIC / MEC (Trichophyton tonsurans)
2.13: FICI (Cryptococcus tetragattii; CAS:10-ZOL)
1.55: FICI (Candida dubliniensis; VOR:10-ZOL)
0.52: FICI (Aspergillus parafelis; FLC:10-ZOL) | FICI (Aspergillus felis; FLC:10-ZOL)

Source: publication PMC12892976, “Alkylation-based optimization of antifungal FPPS inhibitors yields a potent, broad-spectrum lipophilic zoledronate derivative” (mBio, 2025)
